Data as given in US20120041026A1, “(R)-4-((4-((4-(TETRAHYDROFURAN-3-YLOXY)BENZO[D]ISOXAZOL-3-YLOXY)METHYL)PIPERIDIN-1-YL)METHYL)TETRAHYDRO-2H-PYRAN-4-OL, A PARTIAL AGONIST OF 5-HT4 RECEPTORS” (Pfizer Inc., priority 2010, published 2012).
Like-named read-outs stand apart in the source and are kept apart here. Marks after values point to notes of the source that are not given here.

Experiments:
human 5-HT4d [1] = molecular target: T1, human 5-HT4d (Homo sapiens, UniProt Q13639); test: Agonist-induced cAMP elevation in human 5-HT4d transfected HEK293 cells, 96 well format; format: cell-based; conditions: normalized to 1,000 nM serotonin; for % IA (intrinsic activity, % agonist effect) RT: RT incubation, plate format not marked
T1 construct: expressed in transfected cells; host or cells: HEK293
Procedure: Agonist-induced cAMP elevation in human 5-HT4d transfected HEK293 cells, 96 well format: Human 5-HT4(d) transfected HEK293 cells were established in-house. The cells were grown at 37° C. and 5% CO2 in DMEM supplemented with 10% FCS, 20 mM HEPES (pH 7.4), 200 μg/mL hygromycin B (Gibco), 100 units/mL penicillin and 100 μg/mL streptomycin. The cells were grown to 60-80% confluence. On the previous day before treatment with compounds, dialyzed FCS (Gibco) was substituted for normal and the cells were incubated overnight. […] The cells were harvested with PBS/1 mM EDTA, centrifuged and washed with PBS. At the beginning of the assay, cell pellet was resuspended in DMEM supplemented with 20 mM HEPES, 10 μM pargyline (Sigma) and 1 mM 3-isobutyl-1-methylxanthine (Sigma) at the concentration of 1.6×10^5 cells/mL and left for 15 min at RT or 37° C. […] After incubation for 15 min at RT or 37° C., 1% Triton X-100 was added to stop the reaction (25 μL/well) and the plates were left for 30 min at RT. Homogenous time-resolved fluorescence-based cAMP (Schering) detection was made according to the manufacturer's instruction. […] Data was analyzed based on the ratio of fluorescence intensity of each well at 620 nm and 665 nm followed by cAMP quantification using cAMP standard curve. Enhancement of cAMP production elicited by each compound was normalized to the amount of cAMP produced by 1,000 nM serotonin (Sigma). Intrinsic activity is reported in Table 1, below, as % agonist effect.

[2] = Human Liver Microsome Stability Assay; conditions: HLM 0.71 mg protein/ml, 1 uM compound, NADPH; hepatic clearance/hepatic blood flow (range 0-1)
Procedure: (§1) Human Liver Microsome Stability Assay: Human liver microsomes (HLMs) are used in a metabolic stability assay to determine the NADPH-dependent in vitro apparent intrinsic metabolic clearance (CLint,app) of a drug (primarily mediated by P450 metabolism). In the HLM assay, test compounds are incubated with HLMs & an NADPH regenerating system in 100 mM potassium phosphate buffer (pH 7.4). The HLMs used in this assay are prepared as a pool from many individual donors. The concentration of HLMs and test compound are 0.71 mg protein/ml and 1 uM, respectively. The reaction is started by the addition of microsomes and buffer to compound. At 0, 5, 10, 20, 30, and 60 minutes, the sample is crashed with ACN/IS (3 times the incubation volume), spun at 4° C. and 3500 rpm for 10 minutes. A matrix and 60 minute w/o NADPH sample are also incubated for 60 minutes serving as negative and positive controls. The matrix sample contains buffer, microsomes, and NADPH (no compound); where as, the 60 minute w/o NADPH sample contains buffer, microsomes, and compound (no NADPH). After centrifugation, the supernatant is removed from the sample, combined with equal parts of water, and stored in the refrigerator until analysis. Drug levels are quantified by mass spectrometry. Clearance is frequently expressed as an extraction ratio (Er) which is calculated as hepatic clearance/hepatic blood flow (range 0-1).

[3] = Brain Penetration Assay (plasma and brain drug levels by LC/MS/MS); conditions: rat, 5 mg/kg subcutaneous; for Brain AUC / Plasma AUC: 0.5-4 h post-dose; for Brain:Plasma ratio: ratio of AUCs
Procedure: (§2) Blood samples were collected via cardiac puncture after euthanization with CO2 at 0.5, 1, 2, and 4 h post-dose. Samples were placed in EDTA tubes and kept on ice. Whole brain was collected via decapitation. Brain samples were immediately stored in dry ice. Blood samples were spun down to collect plasma. Plasma and brain samples were stored at −20° C. until analysis. LC/MS/MS was used to measure plasma and brain drug levels.

human 5-HT4d [4] = molecular target: T1, human 5-HT4d; test: Agonist-induced cAMP elevation in human 5-HT4d transfected HEK293 cells, 384 well format; format: cell-based; conditions: normalized to 1 uM serotonin
Procedure: The cells were grown to 60-80% confluence. […] Intrinsic activity is reported in Table 1, below, as % agonist effect.

[5] = system: THLE-2 (transformed human liver epithelial) cells; test: THLE assay (cell viability by cellular ATP); format: cell-based; conditions: read-out: THLE IC50
Procedure: THLE assay: The THLE assay is predictive of general cell health and measures cell depletion in a human cell line of hepatic origin. THLE-2 (transformed human liver epithelial) cells were obtained from ATCC(CRL-2706 or CRL-10149) and cultured according to ATCC's recommendation. Media consisted of basal medium (BEGM Bullet Kit, Lonza Cat #CC-3170), supplemented with 10% fetal bovine serum (Sigma Cat #F4135) and 2.5 ng/L hEFG (BD Biosciences Cat #356052) and 700 ng/L phosphoethanolamine (Sigma Cat #p-0503). Cells were cultured in T175 human fibronectin/collagen/bovine serum albumin coated flasks. For each experiment, cells were plated onto 384 well plates (custom order, BD Biosciences Cat #359298) at a cell density of 2.5×10^3/well in a total medium volume of 25 μL/well. Plates were incubated for 24 h at 37° C., 5% CO2. […]
Following the 72 h exposure to test compounds, cell viability in each well was determined by measuring the concentration of cellular ATP using the Lonza Vialight™ Plus Cell Proliferation/Cytoxicity Kit (Lonza cat: LT07-121) according to the manufacturer's protocol. The ATP concentration was determined by reading luminescence using a Wallac Envision plate reader (Perkin Elmer, Waltham, Mass., USA). Percent of viable cells relative to no-drug treated controls was determined for each well. […]

[6] = rat, in vivo
Procedure: as §2

[7] = human, 1 uM, pH 7.4
Procedure: as §1

in vivo = conditions: male, Sprague-Dawley, rat, sc, 5 mg/kg
Procedure: as §2

T1 sequence (Q13639 1-360 isoform Q13639-3): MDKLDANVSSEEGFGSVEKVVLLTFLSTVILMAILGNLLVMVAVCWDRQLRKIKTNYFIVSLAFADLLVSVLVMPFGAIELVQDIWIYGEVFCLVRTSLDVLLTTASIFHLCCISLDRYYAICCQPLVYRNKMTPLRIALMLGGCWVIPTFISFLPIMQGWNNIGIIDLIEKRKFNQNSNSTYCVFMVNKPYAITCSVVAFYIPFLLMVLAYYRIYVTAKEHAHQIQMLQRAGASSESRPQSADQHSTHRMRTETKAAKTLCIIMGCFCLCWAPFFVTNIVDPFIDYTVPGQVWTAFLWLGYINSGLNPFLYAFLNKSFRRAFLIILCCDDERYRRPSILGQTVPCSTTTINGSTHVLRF

% IA (intrinsic activity, % agonist effect) 37° C., 96-well format (human 5-HT4d [1]) | % IA (intrinsic activity, % agonist effect) RT (human 5-HT4d [1]) | Er (extraction ratio) [2] | SMILES | other results
118^a % | 55.5% | 0.28 | CC(C)COc1cccc2onc(OCC3CCN(CC4(C(=O)O)CCOCC4)CC3)c12 [F] | Brain AUC [3]: 319 ng·h/g; Plasma AUC [3]: 2950 ng·h/mL; Brain:Plasma ratio [3]: 0.108
95.0^a % | 36.0% | 0.36 | CC(C)COc1cccc2onc(OCC3CCN(CC4(C(=O)O)CCCC4)CC3)c12 [D] | 
79.0^a % | 33.0% | <0.27 | O=C(O)C1(CN2CCC(COc3noc4cccc(OCC5(CO)CCCC5)c34)CC2)CCOCC1 [G] | 
104% | 30.8% | 0.83 | OC1(COc2cccc3onc(OCC4CCN(CC5(O)CCOCC5)CC4)c23)CCCC1 [H] | % IA (intrinsic activity, % agonist effect) 37° C., 384-well format (human 5-HT4d [4]): 50%
 |  |  | OC1(CN2CCC(COc3noc4cccc(O[C@@H]5CCOC5)c34)CC2)CCOCC1 [Compound X, (R)-4-((4-((4-(tetrahydrofuran-3-yloxy)benzo[d]isoxazol-3-yloxy)methyl)piperidin-1-yl)methyl)tetrahydro-2H-pyran-4-ol] | IC50 ([5]; Homo sapiens, THLE-2, 72 h): > 300 µM; Brain AUC ([6]; male, Sprague-Dawley, sc, 5 mg/kg): 1790 ng·h/g; brain penetration (in words) [6]: freely crosses the blood brain barrier; Er (extraction ratio) [7]: 0.62; AUC (in vivo): 1760 ng·h/mL
103^a % | 56.3% |  | O=C(O)C1(CN2CCC(COc3noc4cccc(OCC(F)(F)F)c34)CC2)CCOCC1 [B] | Brain AUC [3]: 160 ng·h/g; Plasma AUC [3]: 4090 ng·h/mL; Brain:Plasma ratio [3]: 0.039
 | 39.1% | 0.78 | CC(C)COc1cccc2onc(OCC3CCN(CC4(O)CCOCC4)CC3)c12 [J] | % IA (intrinsic activity, % agonist effect) 37° C., 384-well format (human 5-HT4d [4]): 55^b %; IC50 ([5]; 72 h exposure, concentration range 300-0.058 μM): 56 µM
